Assay [1] deals with Myc proto-oncogene protein (Homo sapiens, UniProt P01106). Kind of assay: Inhibition of human c-Myc assessed as reduction in c-Myc/Max/Ebox DNA complex formation using pre-formed complex of c-Myc and biotinylated DNA containing single Ebox-sequence followed by compound addition and further addition of his6-tagged c-Max and incubated for 2 hrs by AlphaScreen assay. On the technique in general: Alpha assays give light when donor and acceptor beads are brought close together.

For the next assay, the system named is NCI-H2171. Kind of assay: Antiproliferative activity against human NCI-H2171 cells after 72 hrs by ATPlite assay. The format is functional, cell-based. As to conditions: NCI-H2171, 72 h. A general note: ATP-based viability assays read luminescence as a measure of living cells.

pIC50: −log10 of the molar value. Where only a bound is given, the exact number is not on record here.

Sequence of Myc proto-oncogene protein (P01106 whole entry): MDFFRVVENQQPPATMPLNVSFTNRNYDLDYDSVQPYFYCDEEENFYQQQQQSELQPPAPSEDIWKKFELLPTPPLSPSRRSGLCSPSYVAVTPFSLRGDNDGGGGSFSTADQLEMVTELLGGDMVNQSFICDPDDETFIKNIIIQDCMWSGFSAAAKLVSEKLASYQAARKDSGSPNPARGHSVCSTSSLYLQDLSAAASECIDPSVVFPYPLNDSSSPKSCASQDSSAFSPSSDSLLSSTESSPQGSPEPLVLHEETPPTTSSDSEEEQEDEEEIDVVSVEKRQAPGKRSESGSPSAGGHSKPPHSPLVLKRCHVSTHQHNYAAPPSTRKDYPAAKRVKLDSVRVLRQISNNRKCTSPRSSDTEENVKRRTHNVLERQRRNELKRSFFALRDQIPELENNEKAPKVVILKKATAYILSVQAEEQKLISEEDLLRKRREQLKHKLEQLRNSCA

Usually pIC50 stands for −log10 of the IC50, conventionally taken in molar units. On to `CC(C)NCCC(=O)Nc1sc2c(c1-c1nc3cc(C4=CCN(S(C)(=O)=O)CC4)ccc3s1)CCNC2`, for which the pIC50 in assay [1] is above 6.52; in the assay on NCI-H2171, 6.00 to 6.52.
Taken in the same sequence, the figures for `CC(C)NCCC(=O)Nc1sc2c(c1-c1nc3cc(N4CCS(=O)(=O)CC4)ccc3s1)CCNC2` were 6.00 to 6.52 and above 6.52.
Taken in the same sequence, the figures for `COCCNCCC(=O)Nc1sc2c(c1-c1nc3cc(-c4ccc(F)nc4F)ccc3s1)CCNC2` were 6.00 to 6.52 and above 6.52.
Take `COCCNCCC(=O)Nc1sc2c(c1-c1nc3cc(-c4ccc(C(F)(F)F)nc4)ccc3s1)CCNC2`: the pIC50 is 5.00 to 6.00 in assay [1] and above 6.52 with NCI-H2171.
For the compound `COCCNCCC(=O)Nc1sc2c(c1-c1nc3cc(-c4cccc(NS(C)(=O)=O)c4)ccc3s1)CCNC2`, the pIC50 is 5.00 to 6.00 in assay [1] and above 6.52 with NCI-H2171.
As to `COCCNCCC(=O)Nc1sc2c(c1-c1nc3ccc(-c4cncc(C)c4)cc3s1)CCNC2`, the pIC50 in assay [1] was 5.00 to 6.00; in the assay on NCI-H2171, above 6.52.
For the compound `O=C(C[C@@H]1CCCN1)Nc1sc2c(c1-c1nc3ccccc3s1)CCNC2`, the pIC50 in assay [1] was 5.00 to 6.00; in the assay on NCI-H2171 it was above 6.52.
The matching figures for `CC(C)NCCC(=O)Nc1sc2c(c1-c1nc3cc(O)ccc3s1)CCNC2`: above 6.52 and 6.00 to 6.52.
The matching figures for `CC(C)N1CCc2c(sc(NC(=O)CCN3CCOCC3)c2-c2nc3ccccc3s2)C1`: 6.00 to 6.52 and above 6.52.
The matching figures for `COCCNCCC(=O)Nc1sc2c(c1-c1nc3cc(-c4cnn(Cc5ccccc5)c4)ccc3s1)CCNC2`: 5.00 to 6.00 and above 6.52.
Consider `COCCNCCC(=O)Nc1sc2c(c1-c1nc3ccc(-c4ccnc(OC)c4)cc3s1)CCNC2`, for which the results for the pIC50 (in assay [1]; in the assay with NCI-H2171) were 6.00 to 6.52 and above 6.52, respectively.
Taken in the same sequence, the figures for `CC(C)N1CCc2c(sc(NC(=O)CCN3CCN(C)CC3)c2-c2nc3ccccc3s2)C1` were 6.00 to 6.52 and 6.00 to 6.52.
The matching figures for `Cc1cn(-c2ccc3sc(-c4c(NC(=O)CCNC(C)C)sc5c4CCNC5)nc3c2)cn1`: above 6.52 and above 6.52.
The matching figures for `COCCNCCC(=O)Nc1sc2c(c1-c1nc3c(N4CC(O)C4)cccc3s1)CCNC2`: above 6.52 and above 6.52.
As for `COCCNCCC(=O)Nc1sc2c(c1-c1nc3ccc(-c4cccc(S(N)(=O)=O)c4)cc3s1)CCNC2`, the pIC50 in assay [1] was 6.00 to 6.52; with NCI-H2171 it was above 6.52.
Taken in the same sequence, the figures for `CC(C)NCCC(=O)Nc1sc2c(c1-c1nc3cc(-c4cccnc4)ccc3s1)CCNC2` were above 6.52 and above 6.52.
Taken in the same sequence, the figures for `CC(C)NCCC(=O)N(C)c1sc2c(c1-c1nc3cc(-c4cnn(C)c4)ccc3s1)CCNC2` were below 5.00 and 5.00 to 6.00.
The matching figures for `CC(C)NCCC(=O)Nc1sc2c(c1-c1nc3ccccc3o1)CCNC2`: 6.00 to 6.52 and above 6.52.
On to `CC(C)NCCC(=O)Nc1sc2c(c1-c1nc3ccc(-c4cnn(C)c4)cc3s1)CCNC2`, for which the pIC50 (in assay [1]; with NCI-H2171) was above 6.52 throughout.
For `COCCNCCC(=O)Nc1sc2c(c1-c1nc3c(N4CCOCC4)cccc3s1)CCNC2`, the pIC50 in assay [1] was below 5.00; in the assay with NCI-H2171 it was 6.00 to 6.52.
The matching figures for `COCCNCCC(=O)Nc1sc2c(c1-c1nc3ccc(-c4c[nH]nc4C)cc3s1)CCNC2`: 6.00 to 6.52 and above 6.52.
Taken in the same sequence, the figures for `COCCNCCC(=O)Nc1sc2c(c1-c1nc3cc(-c4ccc(N5CCN(C)CC5)cc4)ccc3s1)CCNC2` were 6.00 to 6.52 and above 6.52.
Taken in the same sequence, the figures for `CCOc1ccc(-c2ccc3sc(-c4c(NC(=O)CCNCCOC)sc5c4CCNC5)nc3c2)cn1` were 6.00 to 6.52 and above 6.52.
As for `CNC(=O)Nc1ccc(-c2ccc3nc(-c4c(NC(=O)CCNCCOC)sc5c4CCNC5)sc3c2)cc1`, the values for the pIC50 (in assay [1]; in the assay with NCI-H2171) were 5.00 to 6.00 and above 6.52, respectively.
The matching figures for `COCCNCCC(=O)Nc1sc2c(c1-c1nc3cc(-c4cncc(C#N)c4)ccc3s1)CCNC2`: 6.00 to 6.52 and 6.00 to 6.52.
The matching figures for `COCCNCCC(=O)Nc1sc2c(c1-c1nc3cc(-c4ccc(C)nc4)ccc3s1)CCNC2`: 6.00 to 6.52 and above 6.52.
Taken in the same sequence, the figures for `COCCNCCC(=O)Nc1sc2c(c1-c1nc3c(NS(C)(=O)=O)cccc3s1)CCNC2` were 5.00 to 6.00 and above 6.52.
Take `CC(=O)Nc1sc2c(c1-c1nc3cc(-c4ccncc4)ccc3s1)CCNC2`: the pIC50 is 6.00 to 6.52 in assay [1] and above 6.52 with NCI-H2171.
Take `CNS(=O)(=O)c1cccc(-c2ccc3sc(-c4c(NC(=O)CCNCCOC)sc5c4CCNC5)nc3c2)c1`: the pIC50 is 6.00 to 6.52 in assay [1] and above 6.52 in the assay with NCI-H2171.
In the case of `O=C(CCNC1CC1)Nc1sc2c(c1-c1nc3ccccc3s1)CCNC2`, the pIC50 in assay [1] was 6.00 to 6.52; with NCI-H2171, above 6.52.
Take `COCCNCCC(=O)Nc1sc2c(c1-c1nc3cc(-c4ccnc(C)c4)ccc3s1)CCNC2`: the pIC50 was 6.00 to 6.52 in assay [1] and above 6.52 in the assay with NCI-H2171.
Taken in the same sequence, the figures for `CSc1ccc2sc(-c3c(NC(=O)CCNC(C)C)sc4c3CCNC4)nc2c1` were 6.00 to 6.52 and above 6.52.
For the compound `COCCNCCC(=O)Nc1sc2c(c1-c1nc3cc(-c4ccc(N5CCOCC5)nc4)ccc3s1)CCNC2`, the pIC50 (in assay [1]; in the assay on NCI-H2171) was 6.00 to 6.52 each time.
On to `O=C(C[C@H]1CCCN1)Nc1sc2c(c1-c1nc3ccccc3s1)CCNC2`, for which the pIC50 was 6.00 to 6.52 in assay [1] and above 6.52 with NCI-H2171.
Taken in the same sequence, the figures for `COCCNCCC(=O)Nc1sc2c(c1-c1nc3cc(-c4ccc(O)nc4)ccc3s1)CCNC2` were above 6.52 and 6.00 to 6.52.
Taken in the same sequence, the figures for `COCCNCCC(=O)Nc1sc2c(c1-c1nc3ccc(-c4ccnc(NC(C)=O)c4)cc3s1)CCNC2` were 6.00 to 6.52 and above 6.52.
The matching figures for `NCCC(=O)Nc1sc2c(c1-c1nc3ccccc3s1)CCNC2`: above 6.52 and above 6.52.
`COCCNCCC(=O)Nc1sc2c(c1-c1nc3cc(-c4ccnc(OC)c4)ccc3s1)CCNC2`: the values for the pIC50 (in assay [1]; with NCI-H2171) were 6.00 to 6.52 and above 6.52, respectively.
The matching figures for `CC(C)NCCC(=O)Nc1sc2c(c1-c1nc3cc(C4=CCN(S(=O)(=O)N(C)C)CC4)ccc3s1)CCNC2`: 6.00 to 6.52 and above 6.52.
The matching figures for `CC(C)NCCC(=O)Nc1sc2c(c1-c1nc3ccccc3s1)CC1CCC2N1` (configuration not stated): 5.00 to 6.00 and above 6.52.
Taken in the same sequence, the figures for `CNCCC(=O)Nc1sc2c(c1-c1nc3ccccc3s1)CCN(C(C)C)C2` were above 6.52 and above 6.52.
As to `COCCNCCC(=O)Nc1sc2c(c1-c1nc3cc(-c4cc(C)[nH]n4)ccc3s1)CCNC2`, the pIC50 in assay [1] is 6.00 to 6.52; in the assay on NCI-H2171 it was above 6.52.
Taken in the same sequence, the figures for `CC(C)N1CCc2c(sc(NC(=O)CCNCCc3cccnc3)c2-c2nc3ccccc3s2)C1` were 6.00 to 6.52 and 6.00 to 6.52.
For `COCCNCCC(=O)Nc1sc2c(c1-c1nc3cc(-c4ccc(C(=O)N(C)C)cc4F)ccc3s1)CCNC2`, the pIC50 in assay [1] is 6.00 to 6.52; with NCI-H2171 it was above 6.52.
As to `COCCNCCC(=O)Nc1sc2c(c1-c1nc3cc(-c4ccc(OC)nc4)ccc3s1)CCNC2`, the pIC50 in assay [1] was 5.00 to 6.00; with NCI-H2171, above 6.52.
Taken in the same sequence, the figures for `CNS(=O)(=O)c1cccc(-c2ccc3nc(-c4c(NC(=O)CCNCCOC)sc5c4CCNC5)sc3c2)c1` were 6.00 to 6.52 and above 6.52.

These data come from ChEMBL document CHEMBL4476874, “Compounds for the modulation of myc activity” (2018).
